Values belong to the compound of their own block, whether it stands above or below them.
Tests used:
SSTR4 [1] = details: SSTR4 selective agonist; cited from earlier work
Excerpt: (§1) Along with increased knowledge of the pharmacological effects of these receptors, medical application of SST and its analogs has expanded. A considerable amount of effort has been made to develop new therapeutics for oncology of SSTRs. […] It was found recently that radiolabeled SSTR antagonists produced superi ...

SSTR4 [2] = target: T1, SSTR4 (Homo sapiens, UniProt P31391, F211A); assay: cAMP accumulation assay (agonist-induced inhibition of forskolin-stimulated cAMP), SSTR4, HEK293F; format: cell-based; details: SSTR4 mutant F211^5.38A; mean ± SEM;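 also: transiently transfected cells incubated 40 min at room temperature with 4 µM forskolin and graded ligand, cAMP read by LANCE Ultra TR-FRET kit, values normalized to WT receptor per ligand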
T1 construct: expressed in transfected cells; host or cells: HEK293F
T1 sequence (P31391 whole entry F211A): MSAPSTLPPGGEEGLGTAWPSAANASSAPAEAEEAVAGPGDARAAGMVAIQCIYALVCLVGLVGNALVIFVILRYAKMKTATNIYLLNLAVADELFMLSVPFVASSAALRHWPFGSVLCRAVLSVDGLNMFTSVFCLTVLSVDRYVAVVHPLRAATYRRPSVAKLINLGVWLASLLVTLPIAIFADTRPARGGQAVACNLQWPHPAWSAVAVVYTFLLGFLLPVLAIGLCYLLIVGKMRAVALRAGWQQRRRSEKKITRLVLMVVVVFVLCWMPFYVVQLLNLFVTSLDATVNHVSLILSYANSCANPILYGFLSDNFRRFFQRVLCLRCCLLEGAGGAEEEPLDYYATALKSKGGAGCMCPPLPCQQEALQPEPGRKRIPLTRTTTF
Experimental: (§2) HEK293F cells were transiently transfected with WT or mutant SSTR2/SSTR4 using transfection reagent (PEI MAX 2000, Polysciences) and incubated at 37 °C in 5% CO2. Forty-eight hours after transfection, cells were centrifuged and resuspended in stimulation buffer (Hanks’ balanced salt solution (HBSS) supplemented with 5 mM HEPES, 0.5 mM IBMX and 0.1% (w/v) bovine serum albumin (BSA), pH 7.4) to a density of 200,000 cells/mL and added to 384-well white plates (PerkinElmer, 1000 cells/well). cAMP accumulation was measured by a LANCE Ultra cAMP kit (PerkinElmer) according to the manufacturer’s instructions. In brief, transfected cells were incubated for 40 min in stimulation buffer with 2.5 μL forskolin (SSTR2: 2 μM; SSTR4: 4 μM) and gradient concentration of ligand at RT. The reactions were stopped by addition of lysis buffer containing 5 μL Eu-cAMP tracer and 5 μL ULight-anti-cAMP. Plates were then incubated for 60 min at RT and time-resolved FRET signals were measured at 620 nm and 665 nm by an EnVision multilabel plate reader (PerkinElmer). Data were analyzed in GraphPad PRISM 8 and all values were normalized to the WT for each ligand. All outcomes were repeated at least three times.
(§3) aMutants represent that mutations were introduced separately into the WT receptors and
(§4) transiently expressed in HEK 293F cells.
(§5) bThe EC50 ratio was shown as EC50(mutant)/EC50(WT), indicating the shift between the WT
(§6) and mutant curves, reflecting the effect of the mutations on receptor signaling.
(§7) cData are shown as mean ± S.E.M. from at least three independent experiments
(§8) performed in technical triplicate. One-way ANOVA was performed followed by
(§9) Dunnett’s post-test and compared with WT. The P value was defined as: *P<0.05;
(§10) d The span is defined as the window between the maximal agonists response (Emax) and
(§11) e Sample size; the number of independent experiments performed in technical triplicate.
(§12) f Receptor expression level of HEK 293F cells was determined independently by flow
(§13) cytometry with anti-FLAG antibody and shown as per cent compared to the WT.

SSTR4 [3] = target: T2, SSTR4 (Homo sapiens, UniProt P31391, L297A); assay: as above; format: cell-based; details: SSTR4 mutant L297^7.39A; mean ± SEM
T2 construct: expressed in transfected cells; host or cells: HEK293F
T2 sequence (P31391 whole entry L297A): as the sequence (P31391 whole entry F211A) above, with A211F, L297A counted along it
Experimental: as §2, §3, §4, §5, §6, §7, §8, §9, §10, §11, §12, §13

SSTR4 [4] = assay: as above; format: cell-based, human; details: for EC50 ratio: EC50(mutant)/EC50(WT)
Experimental: as §2, §3, §4, §5, §6, §7, §8, §9, §10, §11, §12, §13

SSTR4 [5] = target: T3, SSTR4 (Homo sapiens, UniProt P31391, L123A); assay: as above; format: cell-based; details: SSTR4 mutant L123^3.29A; mean ± SEM
T3 construct: expressed in transfected cells; host or cells: HEK293F
T3 sequence (P31391 whole entry L123A): as the sequence (P31391 whole entry F211A) above, with L123A, A211F counted along it
Experimental: as §2, §3, §4, §5, §6, §7, §8, §9, §10, §11, §12, §13

SSTR4 [6] = target: T4, SSTR4 (Homo sapiens, UniProt P31391, N293A); assay: as above; format: cell-based; details: SSTR4 mutant N293^7.35A; mean ± SEM
T4 construct: expressed in transfected cells; host or cells: HEK293F
T4 sequence (P31391 whole entry N293A): as the sequence (P31391 whole entry F211A) above, with A211F, N293A counted along it
Experimental: as §2, §3, §4, §5, §6, §7, §8, §9, §10, §11, §12, §13

SSTR4 [7] = target: T5, SSTR4 (Homo sapiens, UniProt P31391, N282A); assay: as above; format: cell-based; details: SSTR4 mutant N282^6.58A; mean ± SEM
T5 construct: expressed in transfected cells; host or cells: HEK293F
T5 sequence (P31391 whole entry N282A): as the sequence (P31391 whole entry F211A) above, with A211F, N282A counted along it
Experimental: as §2, §3, §4, §5, §6, §7, §8, §9, §10, §11, §12, §13

SSTR4 [8] = target: T6, SSTR4 (Homo sapiens, UniProt P31391, V103L); assay: as above; format: cell-based; details: SSTR4 mutant V103^2.60L; mean ± SEM
T6 construct: expressed in transfected cells; host or cells: HEK293F
T6 sequence (P31391 whole entry V103L): as the sequence (P31391 whole entry F211A) above, with V103L, A211F counted along it
Experimental: as §2, §3, §4, §5, §6, §7, §8, §9, §10, §11, §12, §13

SSTR4 [9] = target: SSTR4 (Homo sapiens, UniProt P31391, T215A); assay: as above; format: cell-based; set-up: expressed in transfected cells; host or cells: HEK293F; details: SSTR4 mutant T215^5.42A; mean ± SEM
Chain of SSTR4 (Homo sapiens, UniProt P31391, T215A) (P31391 whole entry T215A): as the sequence (P31391 whole entry F211A) above, with A211F, T215A counted along it
Experimental: as §2, §3, §4, §5, §6, §7, §8, §9, §10, §11, §12, §13

SSTR4 [10] = target: SSTR4 (Homo sapiens, UniProt P31391, N199A); assay: as above; format: cell-based; set-up: expressed in transfected cells; host or cells: HEK293F; details: SSTR4 mutant N199^ECL2A; mean ± SEM
Chain of SSTR4 (Homo sapiens, UniProt P31391, N199A) (P31391 whole entry N199A): as the sequence (P31391 whole entry F211A) above, with N199A, A211F counted along it
Experimental: as §2, §3, §4, §5, §6, §7, §8, §9, §10, §11, §12, §13

SSTR4 [11] = target: SSTR4 (Homo sapiens, UniProt P31391, Y276A); assay: as above; format: cell-based; set-up: expressed in transfected cells; host or cells: HEK293F; details: SSTR4 mutant Y276^6.52A; mean ± SEM
Chain of SSTR4 (Homo sapiens, UniProt P31391, Y276A) (P31391 whole entry Y276A): as the sequence (P31391 whole entry F211A) above, with A211F, Y276A counted along it
Experimental: as §2, §3, §4, §5, §6, §7, §8, §9, §10, §11, §12, §13

SSTR4 [12] = target: SSTR4 (Homo sapiens, UniProt P31391, V264F); assay: as above; format: cell-based; set-up: expressed in transfected cells; host or cells: HEK293F
Chain of SSTR4 (Homo sapiens, UniProt P31391, V264F) (P31391 1-328 V264F): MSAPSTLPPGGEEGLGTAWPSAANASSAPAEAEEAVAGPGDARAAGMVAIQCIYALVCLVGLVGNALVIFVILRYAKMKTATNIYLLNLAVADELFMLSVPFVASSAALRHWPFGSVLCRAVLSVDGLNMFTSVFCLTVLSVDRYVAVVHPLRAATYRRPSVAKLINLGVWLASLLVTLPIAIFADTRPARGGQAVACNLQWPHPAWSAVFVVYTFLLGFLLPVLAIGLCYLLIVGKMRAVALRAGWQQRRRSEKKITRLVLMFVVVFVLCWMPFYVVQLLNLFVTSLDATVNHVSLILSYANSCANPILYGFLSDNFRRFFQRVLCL
Experimental: as §2, §3, §4, §5, §6, §7, §8, §9, §10, §11, §12, §13

SSTR4 [13] = target: SSTR4 (Homo sapiens, UniProt P31391, Q279A); assay: as above; format: cell-based; set-up: expressed in transfected cells; host or cells: HEK293F; details: SSTR4 mutant Q279^6.55A; mean ± SEM
Chain of SSTR4 (Homo sapiens, UniProt P31391, Q279A) (P31391 whole entry Q279A): as the sequence (P31391 whole entry F211A) above, with A211F, Q279A counted along it
Experimental: as §2, §3, §4, §5, §6, §7, §8, §9, §10, §11, §12, §13

SSTR4 [14] = target: SSTR4 (Homo sapiens, UniProt P31391, F275A); assay: as above; format: cell-based; set-up: expressed in transfected cells; host or cells: HEK293F; details: SSTR4 mutant F275^6.51A; mean ± SEM
Chain of SSTR4 (Homo sapiens, UniProt P31391, F275A) (P31391 whole entry F275A): as the sequence (P31391 whole entry F211A) above, with A211F, F275A counted along it
Experimental: as §2, §3, §4, §5, §6, §7, §8, §9, §10, §11, §12, §13

SSTR4 [15] = target: SSTR4 (Homo sapiens, UniProt P31391, M130A); assay: as above; format: cell-based; set-up: expressed in transfected cells; host or cells: HEK293F; details: SSTR4 mutant M130^3.36A; mean ± SEM
Chain of SSTR4 (Homo sapiens, UniProt P31391, M130A) (P31391 whole entry M130A): as the sequence (P31391 whole entry F211A) above, with M130A, A211F counted along it
Experimental: as §2, §3, §4, §5, §6, §7, §8, §9, §10, §11, §12, §13

SSTR4 [16] = target: SSTR4 (Homo sapiens, UniProt P31391); assay: as above; format: cell-based; set-up: expressed in transfected cells; host or cells: HEK293F; details: WT SSTR4, mean ± SEM
Chain of SSTR4 (Homo sapiens, UniProt P31391) (P31391 whole entry): as the sequence (P31391 whole entry F211A) above, with A211F counted along it
Experimental: as §2, §3, §4, §5, §6, §7, §8, §9, §10, §11, §12, §13

SSTR4 [17] = target: SSTR4 (Homo sapiens, UniProt P31391, Y301A); assay: as above; format: cell-based; set-up: expressed in transfected cells; host or cells: HEK293F; details: SSTR4 mutant Y301^7.43A; mean ± SEM
Chain of SSTR4 (Homo sapiens, UniProt P31391, Y301A) (P31391 whole entry Y301A): as the sequence (P31391 whole entry F211A) above, with A211F, Y301A counted along it
Experimental: as §2, §3, §4, §5, §6, §7, §8, §9, §10, §11, §12, §13

SSTR4 [18] = target: SSTR4 (Homo sapiens, UniProt P31391, D126A); assay: as above; format: cell-based; set-up: expressed in transfected cells; host or cells: HEK293F; details: SSTR4 mutant D126^3.32A; mean ± SEM
Chain of SSTR4 (Homo sapiens, UniProt P31391, D126A) (P31391 whole entry D126A): as the sequence (P31391 whole entry F211A) above, with D126A, A211F counted along it
Experimental: as §2, §3, §4, §5, §6, §7, §8, §9, §10, §11, §12, §13

[19] = test system: growth hormone and glucagon releases; details: full agonist; cited from earlier work
Excerpt: as §1

SSTR2 = target: T7, SSTR2 (Homo sapiens, UniProt P30874, F208A); assay: cAMP accumulation assay (agonist-induced inhibition of forskolin-stimulated cAMP), SSTR2, HEK293F; format: cell-based; details: SSTR2 mutant F208^5.38A; mean ± SEM;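 also: transiently transfected cells exposed to 2 µM forskolin and a ligand concentration series for 40 min at room temperature in IBMX-containing HBSS, then cAMP quantified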
T7 construct: expressed in transfected cells; host or cells: HEK293F
T7 sequence (P30874 whole entry F208A): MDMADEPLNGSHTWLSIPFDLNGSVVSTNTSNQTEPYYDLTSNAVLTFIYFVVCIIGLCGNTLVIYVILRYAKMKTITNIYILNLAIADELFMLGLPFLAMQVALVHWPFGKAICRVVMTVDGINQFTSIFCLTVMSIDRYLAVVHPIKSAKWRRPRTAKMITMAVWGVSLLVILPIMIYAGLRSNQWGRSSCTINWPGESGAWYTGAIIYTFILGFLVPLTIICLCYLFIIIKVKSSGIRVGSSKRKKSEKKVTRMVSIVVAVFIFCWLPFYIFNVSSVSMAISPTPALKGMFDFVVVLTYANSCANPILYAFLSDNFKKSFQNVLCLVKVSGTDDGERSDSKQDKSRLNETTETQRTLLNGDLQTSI
Experimental: as §2, §3, §4, §5, §6, §7, §8, §9, §10, §11, §12, §13

Span (SSTR4 [2]): 94±7 % of WT
pEC50 ± SEM (SSTR4 [2]): 8.20±0.17
Span (SSTR4 [3]): 111 ± 8 % of WT
pEC50 ± SEM (SSTR4 [3]): 7.59±0.16
EC50 ratio (SSTR4 [4]; Construct 4 SSTR4): 0.2
EC50 ratio (SSTR4 [4]; SSTR4 mutant F211^5.38A): 33
EC50 ratio (SSTR4 [4]; SSTR4 mutant L123^3.29A): 2
EC50 ratio (SSTR4 [4]; SSTR4 mutant L297^7.39A): 137
EC50 ratio (SSTR4 [4]; SSTR4 mutant M130^3.36A): 4
EC50 ratio (SSTR4 [4]; SSTR4 mutant N199^ECL2A): 0.3
EC50 ratio (SSTR4 [4]; SSTR4 mutant N293^7.35A): 3
EC50 ratio (SSTR4 [4]; SSTR4 mutant Q279^6.55A): 1
EC50 ratio (SSTR4 [4]; SSTR4 mutant T215^5.42A): 1
EC50 ratio (SSTR4 [4]; SSTR4 mutant V103^2.60L): 5
EC50 ratio (SSTR4 [4]; SSTR4 mutant Y276^6.52A): 1016
EC50 ratio (SSTR4 [4]; SSTR4 mutant Y301^7.43A): 497
EC50 ratio (SSTR4 [4]; WT SSTR4): 1
Span (SSTR4 [5]): 61±6 % of WT
pEC50 ± SEM (SSTR4 [5]): 9.49±0.23
Span (SSTR4 [6]): 87±6 % of WT
pEC50 ± SEM (SSTR4 [6]): 9.30±0.17
Span (SSTR4 [7]): 62±5 % of WT
pEC50 ± SEM (SSTR4 [7]): 9.99±0.21
Span (SSTR4 [8]): 40±4 % of WT
pEC50 ± SEM (SSTR4 [8]): 9.00±0.25
Span (SSTR4 [9]): 92±5 % of WT
pEC50 ± SEM (SSTR4 [9]): 9.85±0.14
Span (SSTR4 [10]): 88±5 % of WT
pEC50 ± SEM (SSTR4 [10]): 10.23±0.14
Span (SSTR4 [11]): 106±6 % of WT
pEC50 ± SEM (SSTR4 [11]): 6.71±0.08
EC50 (SSTR4 [12]; Construct 4 SSTR4 (V264F, C-terminal truncation)): 0.03 nM
Span (SSTR4 [12]; Construct 4 SSTR4, mean ± SEM): 106±5 % of WT
pEC50 ± SEM (SSTR4 [12]; Construct 4 SSTR4, mean ± SEM): 10.46±0.13
Span (SSTR4 [13]): 98±6 % of WT
pEC50 ± SEM (SSTR4 [13]): 9.57±0.17
Span (SSTR4 [14]): 22±7 % of WT
Span (SSTR4 [15]): 78±6 % of WT
pEC50 ± SEM (SSTR4 [15]): 9.12±0.19
pEC50 ± SEM (SSTR4 [16]; HEK293F, at least three independent experiments): 9.73±0.08
Span (SSTR4 [16]; window between Emax and vehicle): 100±3 % of WT
Span (SSTR4 [17]): 64±7 % of WT
pEC50 ± SEM (SSTR4 [17]): 7.02±019
Span (SSTR4 [18]): 23±28 % of WT
SMILES: Cc1ccc(S(=O)(=O)N[C@@H](CCN)C(=O)N[C@@H](Cc2ccccc2)C(N)=O)c2ccccc12 [J-2156]
pain relief (SSTR4 [1]): mediates pain relief
effect of alanine mutation on agonist potency (SSTR4 [4]; SSTR4 F275^6.51 and Y276^6.52): significant reduction in agonist potency
decrease of potency (SSTR4 [4]; SSTR4 mutant V103^2.60 to leucine): ~ 5 fold

Span (SSTR2): 81±5 % of WT
pEC50 ± SEM (SSTR2): 9.34±0.13
SMILES: C[C@@H](c1c[nH]c2ccccc12)[C@@H](NC(=O)N1CCC(n2c(=O)[nH]c3ccccc32)CC1)C(=O)N[C@@H](CCCCN)C(=O)OC(C)(C)C [L-054,522]
effect on growth hormone and glucagon releases [19]: inhibitory effect on growth hormone and glucagon releases
